Results published in ChEMBL document CHEMBL3137667, “[Drug-induced liver injury; fourteenth updated edition of the bibliographic database of liver injuries and related drugs]” (Gastroenterol Clin Biol, 2004).

Legend:
[1] = human
[2] = Highest frequency of moderate liver toxicity observed during clinical trials, expressed as a percentage. [column '% BIOL' in source]; conditions: human
[3] = human; remark: listed apart in the source
[4] = human; remark: listed apart in the source
[5] = human; remark: listed apart in the source
[6] = human, serum
[7] = human; remark: listed apart in the source
[8] = human, serum; remark: listed apart in the source
[9] = human; remark: listed apart in the source
[10] = human; remark: listed apart in the source
[11] = Highest frequency of acute liver toxicity observed during clinical trials, expressed as a percentage. [column '% AIGUE' in source]; conditions: human
[12] = human; remark: listed apart in the source
[13] = human; remark: listed apart in the source
[14] = human, serum, 4383 h
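Wherever Hepatotoxicity (association with vascular disease) is given: count of indexed literature references reporting vascular liver injury in humans, e.g. peliosis hepatitis, hepatic veno-occlusive disease or Budd-Chiari syndrome.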
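Wherever Hepatotoxicity (benign tumour) is given: value is a count of indexed literature references citing a benign tumour confirmed by histopathology.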
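Wherever Hepatotoxicity (choleostasis) is given: human cholestatic liver injury, shown by histopathology or by peak ALT or AST elevation over alkaline phosphatase ratio below 2, value counts indexed literature reports.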
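Wherever Hepatotoxicity (chronic liver disease) is given: chronic liver injury confirmed by histopathology or persistently raised serum aminotransferase activity beyond 6 months, value given as the count of indexed literature references.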
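Wherever Hepatotoxicity (cirrhosis) is given: value is a count of indexed literature references reporting cirrhosis confirmed by histopathology.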
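Wherever Hepatotoxicity (cytolytic) is given: human cytolytic liver injury, shown by histopathology or by a ratio above 5 of peak ALT or AST elevation to alkaline phosphatase elevation, value counts indexed references.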
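Wherever Hepatotoxicity (granulomatous hepatitis) is given: value is a count of indexed literature references reporting granulomatous liver disease confirmed by histopathology.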
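Wherever Hepatotoxicity (malignant tumour) is given: malignant tumour confirmed by histopathology, value gives the count of indexed literature references reporting it.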
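Wherever Hepatotoxicity (severe hepatitis) is given: human clinical data: severe hepatitis, meaning potentially life-threatening liver failure or clinically observed cases, the value counts how many indexed literature references report it.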
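Wherever Hepatotoxicity (steatosis) is given: steatosis confirmed by histopathology, value is the count of indexed references.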

Structure (SMILES): CCOC(=O)Nc1ccc(NCc2ccc(F)cc2)nc1N [FLUPIRTINE]
- Hepatotoxicity (cirrhosis) [1]: 0
- Hepatotoxicity (moderate) [2]: 10%
- Hepatotoxicity (benign tumour) [3]: 0
- Hepatotoxicity (cytolytic) [4]: 0
- Hepatotoxicity (steatosis) [5]: 0
- Hepatotoxicity (moderate) [6]: 2
- Hepatotoxicity (severe hepatitis) [7]: 0
- Hepatotoxicity (acute) [8]: 0
- Hepatotoxicity (choleostasis) [9]: 0
- Hepatotoxicity (granulomatous hepatitis) [10]: 0
- Hepatotoxicity (acute) [11]: 0%
- Hepatotoxicity (malignant tumour) [12]: 0
- Hepatotoxicity (association with vascular disease) [13]: 0
- Hepatotoxicity (chronic liver disease) [14]: 0

Structure (SMILES): C[C@H]1C[C@H]2[C@@H]3CCC4=CC(=O)C=C[C@]4(C)[C@@]3(Cl)[C@@H](O)C[C@]2(C)[C@@]1(O)C(=O)CO [BECLOMETHASONE]
- Hepatotoxicity (cirrhosis) [1]: 0
- Hepatotoxicity (moderate) [2]: 11.6%
- Hepatotoxicity (benign tumour) [3]: 0
- Hepatotoxicity (cytolytic) [4]: 0
- Hepatotoxicity (steatosis) [5]: 0
- Hepatotoxicity (moderate) [6]: 1
- Hepatotoxicity (severe hepatitis) [7]: 0
- Hepatotoxicity (acute) [8]: 0
- Hepatotoxicity (choleostasis) [9]: 0
- Hepatotoxicity (granulomatous hepatitis) [10]: 0
- Hepatotoxicity (acute) [11]: 0%
- Hepatotoxicity (malignant tumour) [12]: 0
- Hepatotoxicity (association with vascular disease) [13]: 0
- Hepatotoxicity (chronic liver disease) [14]: 0

Structure (SMILES): CC1CCCC(C)N1CCCC(O)(c1ccccc1)c1ccccn1 (stereo not drawn) [PIRMENOL]
- Hepatotoxicity (cirrhosis) [1]: 0
- Hepatotoxicity (moderate) [2]: 5.3%
- Hepatotoxicity (benign tumour) [3]: 0
- Hepatotoxicity (cytolytic) [4]: 0
- Hepatotoxicity (steatosis) [5]: 0
- Hepatotoxicity (moderate) [6]: 1
- Hepatotoxicity (severe hepatitis) [7]: 0
- Hepatotoxicity (acute) [8]: 0
- Hepatotoxicity (choleostasis) [9]: 0
- Hepatotoxicity (granulomatous hepatitis) [10]: 0
- Hepatotoxicity (acute) [11]: 0%
- Hepatotoxicity (malignant tumour) [12]: 0
- Hepatotoxicity (association with vascular disease) [13]: 0
- Hepatotoxicity (chronic liver disease) [14]: 0

Structure (SMILES): CCc1[nH]c(=O)[nH]c1C(=O)c1ccncc1 [PIROXIMONE]
- Hepatotoxicity (cirrhosis) [1]: 0
- Hepatotoxicity (moderate) [2]: 0%
- Hepatotoxicity (benign tumour) [3]: 0
- Hepatotoxicity (cytolytic) [4]: 0
- Hepatotoxicity (steatosis) [5]: 0
- Hepatotoxicity (moderate) [6]: 0
- Hepatotoxicity (severe hepatitis) [7]: 0
- Hepatotoxicity (acute) [8]: 1
- Hepatotoxicity (choleostasis) [9]: 0
- Hepatotoxicity (granulomatous hepatitis) [10]: 0
- Hepatotoxicity (acute) [11]: 0%
- Hepatotoxicity (malignant tumour) [12]: 0
- Hepatotoxicity (association with vascular disease) [13]: 0
- Hepatotoxicity (chronic liver disease) [14]: 0

Structure (SMILES): CN(C)CCN(Cc1ccccc1)c1ccccn1 [TRIPELENNAMINE]
- Hepatotoxicity (cirrhosis) [1]: 0
- Hepatotoxicity (moderate) [2]: 0%
- Hepatotoxicity (benign tumour) [3]: 0
- Hepatotoxicity (cytolytic) [4]: 1
- Hepatotoxicity (steatosis) [5]: 0
- Hepatotoxicity (moderate) [6]: 0
- Hepatotoxicity (severe hepatitis) [7]: 0
- Hepatotoxicity (acute) [8]: 1
- Hepatotoxicity (choleostasis) [9]: 1
- Hepatotoxicity (granulomatous hepatitis) [10]: 0
- Hepatotoxicity (acute) [11]: 0%
- Hepatotoxicity (malignant tumour) [12]: 0
- Hepatotoxicity (association with vascular disease) [13]: 0
- Hepatotoxicity (chronic liver disease) [14]: 0

Structure (SMILES): O=[N+]([O-])c1ccc(O)c([N+](=O)[O-])c1 [2,4-DINITROPHENOL]
- Hepatotoxicity (cirrhosis) [1]: 0
- Hepatotoxicity (moderate) [2]: 0%
- Hepatotoxicity (benign tumour) [3]: 0
- Hepatotoxicity (cytolytic) [4]: 0
- Hepatotoxicity (steatosis) [5]: 0
- Hepatotoxicity (moderate) [6]: 0
- Hepatotoxicity (severe hepatitis) [7]: 2
- Hepatotoxicity (acute) [8]: 3
- Hepatotoxicity (choleostasis) [9]: 0
- Hepatotoxicity (granulomatous hepatitis) [10]: 0
- Hepatotoxicity (acute) [11]: 0%
- Hepatotoxicity (malignant tumour) [12]: 0
- Hepatotoxicity (association with vascular disease) [13]: 0
- Hepatotoxicity (chronic liver disease) [14]: 0

Structure (SMILES): CC(Cc1ccccc1)(NC(=O)CN)c1ccccc1 (stereo not drawn) [REMACEMIDE]
- Hepatotoxicity (cirrhosis) [1]: 0
- Hepatotoxicity (moderate) [2]: 0.9%
- Hepatotoxicity (benign tumour) [3]: 0
- Hepatotoxicity (cytolytic) [4]: 0
- Hepatotoxicity (steatosis) [5]: 0
- Hepatotoxicity (moderate) [6]: 3
- Hepatotoxicity (severe hepatitis) [7]: 0
- Hepatotoxicity (acute) [8]: 0
- Hepatotoxicity (choleostasis) [9]: 0
- Hepatotoxicity (granulomatous hepatitis) [10]: 0
- Hepatotoxicity (acute) [11]: 0%
- Hepatotoxicity (malignant tumour) [12]: 0
- Hepatotoxicity (association with vascular disease) [13]: 0
- Hepatotoxicity (chronic liver disease) [14]: 0

Structure (SMILES): CC(N)C(=O)OC(C)(C)Cc1ccc(Cl)cc1 (stereo not drawn) [ALAPROCLATE]
- Hepatotoxicity (cirrhosis) [1]: 0
- Hepatotoxicity (moderate) [2]: 0%
- Hepatotoxicity (benign tumour) [3]: 0
- Hepatotoxicity (cytolytic) [4]: 0
- Hepatotoxicity (steatosis) [5]: 0
- Hepatotoxicity (moderate) [6]: 1
- Hepatotoxicity (severe hepatitis) [7]: 0
- Hepatotoxicity (acute) [8]: 0
- Hepatotoxicity (choleostasis) [9]: 0
- Hepatotoxicity (granulomatous hepatitis) [10]: 0
- Hepatotoxicity (acute) [11]: 0%
- Hepatotoxicity (malignant tumour) [12]: 0
- Hepatotoxicity (association with vascular disease) [13]: 0
- Hepatotoxicity (chronic liver disease) [14]: 0

Structure (SMILES): Nc1nc(-c2ccccc2)c(Br)c(=O)[nH]1 [BROPIRIMINE]
- Hepatotoxicity (cirrhosis) [1]: 0
- Hepatotoxicity (moderate) ([2]; Liver): 3.1%
- Hepatotoxicity (benign tumour) [3]: 0
- Hepatotoxicity (cytolytic) ([4]; Liver): 0
- Hepatotoxicity (steatosis) [5]: 0
- Hepatotoxicity (moderate) [6]: 1
- Hepatotoxicity (severe hepatitis) ([7]; Liver): 0
- Hepatotoxicity (acute) [8]: 0
- Hepatotoxicity (choleostasis) ([9]; Liver): 0
- Hepatotoxicity (granulomatous hepatitis) ([10]; Liver): 0
- Hepatotoxicity (acute) ([11]; Liver): 0%
- Hepatotoxicity (malignant tumour) [12]: 0
- Hepatotoxicity (association with vascular disease) [13]: 0
- Hepatotoxicity (chronic liver disease) [14]: 0

Structure (SMILES): O=P1(NCCCl)OCCCN1CCCl (stereo not drawn) [IFOSFAMIDE]
- Hepatotoxicity (cirrhosis) [1]: 0
- Hepatotoxicity (moderate) [2]: 3.8%
- Hepatotoxicity (benign tumour) [3]: 0
- Hepatotoxicity (cytolytic) [4]: 2
- Hepatotoxicity (steatosis) [5]: 0
- Hepatotoxicity (moderate) [6]: 3
- Hepatotoxicity (severe hepatitis) [7]: 1
- Hepatotoxicity (acute) [8]: 2
- Hepatotoxicity (choleostasis) [9]: 0
- Hepatotoxicity (granulomatous hepatitis) [10]: 0
- Hepatotoxicity (acute) [11]: 6%
- Hepatotoxicity (malignant tumour) [12]: 0
- Hepatotoxicity (association with vascular disease) [13]: 0
- Hepatotoxicity (chronic liver disease) [14]: 0

Structure (SMILES): CC[C@H]1OC(=O)[C@H](C)[C@@H](O[C@H]2C[C@@](C)(OC)[C@@H](O)[C@H](C)O2)[C@H](C)[C@@H](O[C@@H]2O[C@H](C)C[C@H](N(C)C)[C@H]2O)[C@](C)(O)C[C@](C)(F)C(=O)[C@H](C)[C@@H](O)[C@]1(C)O [FLURITHROMYCIN]
- Hepatotoxicity (cirrhosis) [1]: 0
- Hepatotoxicity (moderate) [2]: 3.6%
- Hepatotoxicity (benign tumour) [3]: 0
- Hepatotoxicity (cytolytic) [4]: 0
- Hepatotoxicity (steatosis) [5]: 0
- Hepatotoxicity (moderate) [6]: 1
- Hepatotoxicity (severe hepatitis) [7]: 0
- Hepatotoxicity (acute) [8]: 0
- Hepatotoxicity (choleostasis) [9]: 0
- Hepatotoxicity (granulomatous hepatitis) [10]: 0
- Hepatotoxicity (acute) [11]: 0%
- Hepatotoxicity (malignant tumour) [12]: 0
- Hepatotoxicity (association with vascular disease) [13]: 0
- Hepatotoxicity (chronic liver disease) [14]: 0

Structure (SMILES): NCC1CC(=O)N(Cc2ccccc2)C1 (stereo not drawn) [NEBRACETAM]
- Hepatotoxicity (cirrhosis) [1]: 0
- Hepatotoxicity (moderate) [2]: 11.1%
- Hepatotoxicity (benign tumour) [3]: 0
- Hepatotoxicity (cytolytic) [4]: 0
- Hepatotoxicity (steatosis) [5]: 0
- Hepatotoxicity (moderate) [6]: 1
- Hepatotoxicity (severe hepatitis) [7]: 0
- Hepatotoxicity (acute) [8]: 0
- Hepatotoxicity (choleostasis) [9]: 0
- Hepatotoxicity (granulomatous hepatitis) [10]: 0
- Hepatotoxicity (acute) [11]: 0%
- Hepatotoxicity (malignant tumour) [12]: 0
- Hepatotoxicity (association with vascular disease) [13]: 0
- Hepatotoxicity (chronic liver disease) [14]: 0
